This passage reports IC50 results from US11053253B2, “Macrocyclic compounds for treatment of medical disorders” (Achillion Pharmaceuticals, Inc., priority 2017, dated 2021).

Structures are written as SMILES. A value given as a limit tells only on which side of the number the result lay.

In the assay the target is Human Factor D (Homo sapiens (Human), UniProt P00746). The experiment in a line: Human Factor D Assay. The format is biochemical. Particulars: Human Factor D 80 nM, substrate Z-L-Lys-SBzl, DTNB, A405; read-out: IC50 (Stars). On the procedure: Example 2. Human Factor D Assay
Sequence of Human Factor D (P00746 26-253): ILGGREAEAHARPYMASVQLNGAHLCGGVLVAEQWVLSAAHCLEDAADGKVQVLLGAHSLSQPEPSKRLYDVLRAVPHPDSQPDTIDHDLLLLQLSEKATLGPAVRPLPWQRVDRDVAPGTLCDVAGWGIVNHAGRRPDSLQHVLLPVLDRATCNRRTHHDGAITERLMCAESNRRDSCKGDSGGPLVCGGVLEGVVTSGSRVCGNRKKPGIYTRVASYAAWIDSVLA
Human Factor D (purified from human serum, Complement Technology, Inc.) at 80 nM final concentration is incubated with test compound at various concentrations for 5 min at room temperature in 50 mM Tris, 1M NaCl, pH 7.5. A synthetic substrate Z-L-Lys-SBzl and DTNB (Ellman's reagent) are added to final concentrations of 100 µM each. Absorbance at 405 nm (A405) is recorded at 30 second intervals for 30 minutes using a microplate spectrophotometer. IC50 values are calculated by nonlinear regression of Complement Factor D reaction rates as a function of test compound concentration.
As for `CC(=O)N[C@H]1CC=CCOCc2ccc(Br)nc2NC(=O)[C@@H]2C[C@@]3(CNC1=O)C[C@H]3N2C(=O)Cn1nc(C(C)=O)c2cc(-c3cnc(C)nc3)ccc21` [Compound T-22, N-((41R,43S,45R,8S)-42-(2-(3-acetyl-5-(2-methylpyrimidin-5-yl)-1H-indazol-1-yl)acetyl)-16-bromo-3,7-dioxo-13-oxa-42,2,6-triaza-1(2,3)-pyridina-4(3,5)-bicyclo[3.1.0]hexanacyclotetradecaphan-10-en-8-yl)acetamide], the IC50 was < 1 µM.
For `CC(=O)c1nn2c3c(cc(-c4cnc(C)nc4)cc13)CCCCCCCCOC[C@@]13C[C@@H](C(=O)Nc4nc(Br)ccc4C)N(C(=O)C2)[C@@H]1C3` [Compound T-23, (41R,43S,45S)-13-acetyl-N-(6-bromo-3-methylpyridin-2-yl)-15-(2-methylpyrimidin-5-yl)-3-oxo-11H-6-oxa-42-aza-1(1,7)-indazola-4(2,5)-bicyclo[3.1.0]hexanacyclotetradecaphane-43-carboxamide] the value was < 1 µM; for `CC(=O)c1nn2c3c(cc(-c4cnc(C)nc4)cc13)CCCCCCCCCOC[C@@]13C[C@@H](C(=O)Nc4nc(Br)ccc4C)N(C(=O)C2)[C@@H]1C3` [Compound T-24, (41R,43S,45S)-13-acetyl-N-(6-bromo-3-methylpyridin-2-yl)-15-(2-methylpyrimidin-5-yl)-3-oxo-11H-6-oxa-42-aza-1(1,7)-indazola-4(2,5)-bicyclo[3.1.0]hexanacyclopentadecaphane-43-carboxamide], < 1 µM.
Turning to `CC(=O)c1nn(CC(=O)N2[C@H]3C[C@]4(C[C@@H]24)Cn2cc(nn2)COCc2ccc(Br)nc2NC3=O)c2cnccc12` [Compound T-27, (31R,33S,35R,Z)-32-(2-(3-acetyl-1H-pyrazolo[3,4-c]pyridin-1-yl)acetyl)-66-bromo-11H-8-oxa-32,5-diaza-6(2,3)-pyridina-1(1,4)-triazola-3(5,3)-bicyclo[3.1.0]hexanacyclononaphan-4-one], the half-maximal inhibitory concentration (IC50) was < 1 µM.
For `CC(=O)c1nn2c3c(cc(-c4cnc(C)nc4)cc13)CCCCCCC=CCc1ccc(Br)nc1NC(=O)[C@@H]1C[C@@]3(C)C[C@H]3N1C(=O)C2` [Compound T-37] the value was < 1 µM.
For `CC(=O)c1nn(CC(=O)N2[C@H]3C[C@@]4(COCCCCCc5ccc(Br)nc5NC3=O)C[C@@H]24)c2ccc(-c3cnc(C)nc3)cc12` [Compound T-38] the value was < 1 µM; for `CC(=O)c1nn(CC(=O)N2[C@H]3C[C@@]4(COCCCCCCc5ccc(Br)nc5NC3=O)C[C@@H]24)c2ccc(-c3cnc(C)nc3)cc12` [Compound T-39], < 1 µM.
For `CC(=O)c1nn(CC(=O)N2[C@H]3C[C@@]4(COCCCCCCCc5ccc(Br)nc5NC3=O)C[C@@H]24)c2ccc(-c3cnc(C)nc3)cc12` [Compound T-40] the value was < 1 µM; for `CC(=O)c1nn(CC(=O)N2[C@H]3C[C@@]4(COCCCCCCCc5ccc(Br)nc5NC3=O)C[C@@H]24)c2cnc(-c3cnc(C)nc3)cc12` [Compound T-41], < 1 µM; for `CC(=O)c1nn(CC(=O)N2[C@H]3C[C@@]4(COCCCCCCc5ccc(Br)nc5NC3=O)C[C@@H]24)c2cnc(-c3cnc(C)nc3)cc12` [Compound T-42], < 1 µM.
Take `CC(=O)c1nn(CC(=O)N2[C@H]3C[C@@]4(C=CCCCCCCc5ccc(Br)nc5NC3=O)C[C@@H]24)c2cnc(-c3cnc(C)nc3)cc12` [Compound T-43]: the half-maximal inhibitory concentration (IC50) is < 1 µM.
For `CC(=O)c1nn(CC(=O)N2[C@H]3C[C@@]4(COC/C=C/COCc5ccc(Br)nc5NC3=O)C[C@@H]24)c2cnc(-c3cnc(C)nc3)cc12` [Compound T-44] the value was < 1 µM; for `CC(=O)c1nn(CC(=O)N2[C@H]3C[C@@]4(COC/C=C\COCc5ccc(Br)nc5NC3=O)C[C@@H]24)c2cnc(-c3cnc(C)nc3)cc12` [Compound T-45], < 1 µM; for `CC(=O)c1nn(CC(=O)N2[C@H]3C[C@@]4(CCCCCCCCc5ccc(Br)nc5NC3=O)C[C@@H]24)c2cnc(-c3cnc(C)nc3)cc12` [Compound T-46], < 1 µM.
Take `CC(=O)c1nn(CC(=O)N2[C@H]3C[C@@]4(C=CCCC5=NN=C(Cc6ccc(Br)nc6NC3=O)O5)C[C@@H]24)c2cnc(-c3cnc(C)nc3)cc12` [Compound T-47]: the IC50 is < 1 µM.
The value for `CC(=O)c1nn(CC(=O)N2[C@H]3C[C@@]4(C=CCCCCCCc5ccc(Br)nc5NC3=O)C[C@@H]24)c2ccc(-c3cnc(C)nc3)cc12` [Compound T-48] was < 1 µM; that for `CC(=O)c1nn2c3c(cc(-c4cnc(C)nc4)cc13)CCCCCCC=Cc1cn(nn1)C[C@@]13C[C@@H](C(=O)Nc4nc(Br)ccc4C)N(C(=O)C2)[C@@H]1C3` [Compound T-49] was < 1 µM; that for `CC(=O)c1nn2c3c(cc(-c4cnc(C)nc4)cc13)C=CCCCCC(=O)NC[C@@]13C[C@@H](C(=O)Nc4nc(C(F)(F)F)ccc4C)N(C(=O)C2)[C@@H]1C3` [Compound T-51] was < 1 µM.
The value for `CC(=O)c1nn2c3c(cc(-c4cnc(C)nc4)cc13)CCCCCCCCc1cn(nn1)C[C@@]13C[C@@H](C(=O)Nc4nc(Br)ccc4C)N(C(=O)C2)[C@@H]1C3` [Compound T-53] was < 1 µM; that for `CC(=O)c1nn(CC(=O)N2[C@H]3C[C@]4(C[C@@H]24)CN(C)CCCCC=CCc2ccc(Br)nc2NC3=O)c2cnc(-c3cnc(C)nc3)cc12` [Compound T-56] was < 1 µM.
For `CC(=O)c1nn(CC(=O)N2[C@H]3C[C@]4(C[C@@H]24)CN(C)CCCC=CCc2ccc(Br)nc2NC3=O)c2cnc(-c3cnc(C)nc3)cc12` [Compound T-57] the value was < 1 µM; for `CC(=O)c1nn2c3c(cc(-c4cnc(C)nc4)cc13)C=CCCCCCN(C)C[C@@]13C[C@@H](C(=O)Nc4nc(Br)ccc4C)N(C(=O)C2)[C@@H]1C3` [Compound T-58], < 1 µM; for `CC(=O)c1nn(CC(=O)N2[C@H]3C[C@@]4(C=CCCCCCN(C)Cc5ccc(Br)nc5NC3=O)C[C@@H]24)c2c(CF)cc(-c3cnc(C)nc3)cc12` [Compound T-59], < 1 µM.
Consider `CC(=O)c1nn(CC(=O)N2[C@H]3C[C@]4(C[C@@H]24)CN(C)CCCCC=CCc2ccc(Br)nc2NC3=O)c2c(C)cc(-c3cnc(C)nc3)cc12` [Compound T-60], for which the half-inhibitory concentration (IC50) is < 1 µM.
Consider `CC(=O)c1nn(CC(=O)N2[C@H]3C[C@]4(C[C@@H]24)CN(C)CCCCC=CCc2ccc(Br)nc2NC3=O)c2c(CF)cc(-c3cnc(C)nc3)cc12` [Compound T-62], for which the IC50 is < 1 µM.
For `CC(=O)c1nn(CC(=O)N2[C@H]3C[C@]4(C[C@@H]24)CN(C)CCCCC=CCc2ccc(Br)nc2NC3=O)c2ccc(-c3cnc(C)nc3)cc12` [Compound T-64] the value was < 1 µM; for `CC(=O)c1nn(CC(=O)N2[C@H]3C[C@]4(C[C@@H]24)CN(C)CCCC=CCc2ccc(Br)nc2NC3=O)c2ccc(-c3cnc(C)nc3)cc12` [Compound T-65], < 1 µM.
For `C=C1COCc2ccc(Br)nc2NC(=O)[C@@H]2C[C@]3(C[C@H]3N2C(=O)Cn2nc(C(C)=O)c3cc(-c4cnc(C)nc4)ccc32)Cn2cc1cn2` [Compound T-66] the value was < 1 µM.
For `CC(=O)c1nn(CC(=O)N2[C@H]3C[C@]4(C[C@@H]24)Cn2ccc(n2)/C=C\COCc2ccc(Br)nc2NC3=O)c2ccc(-c3cnc(C)nc3)cc12` [Compound T-69] the value was < 1 µM.
Take `CC(=O)c1nn(CC(=O)N2[C@H]3C[C@]4(C[C@@H]24)Cn2ccc(n2)/C=C\COCc2ccc(Br)nc2NC3=O)c2cnc(-c3cnc(C)nc3)cc12` [Compound T-70]: the half-inhibitory concentration (IC50) was < 1 µM.
For `CC(=O)c1nn(CC(=O)N2[C@H]3C[C@]4(C[C@@H]24)CN(C)CCCCCCCc2ccc(Br)nc2NC3=O)c2c(C)cc(-c3cnc(C)nc3)cc12` [Compound T-71] the value was < 1 µM; for `CC(=O)c1nn(CC(=O)N2[C@H]3C[C@]4(C[C@@H]24)CN(C)CCCCCCc2ccc(Br)nc2NC3=O)c2c(C)cc(-c3cnc(C)nc3)cc12` [Compound T-72], < 1 µM; for `Cc1ncc(-c2cc(CF)c3c(c2)c(C=O)nn3CC(=O)N2[C@H]3C[C@]4(C[C@@H]24)CN(C)CCCCCCCc2ccc(Br)nc2NC3=O)cn1` [Compound T-74], < 1 µM.
As for `CC(=O)c1nn(CC(=O)N2[C@H]3C[C@]4(C[C@@H]24)CN(C)CCCCCCCc2ccc(Br)nc2NC3=O)c2cnc(-c3cnc(C)nc3)cc12` [Compound T-75], the IC50 is < 1 µM.
For `CC(=O)c1nn(CC(=O)N2[C@H]3C[C@]4(C[C@@H]24)CN(C)CCCCCCc2ccc(Br)nc2NC3=O)c2cnc(-c3cnc(C)nc3)cc12` [Compound T-76] the value was < 1 µM; for `CC(=O)c1nn(CC(=O)N2[C@H]3C[C@@]4(COCC=CCOCc5ccc(Br)nc5NC3=O)C[C@@H]24)c2c(CF)cc(-c3cnc(C)nc3)cc12` [Compound T-77], < 1 µM.
Regarding `CC(=O)c1nn(CC(=O)N2[C@H]3C[C@@]4(COCCCCOCc5ccc(Br)nc5NC3=O)C[C@@H]24)c2c(CF)cc(-c3cnc(C)nc3)cc12` [Compound T-78], the IC50 is < 1 µM.
As for `CC(=O)c1nn2c3cc(c(-c4cnc(C)nc4)cc13)OCCC/C=C/COC[C@@]13C[C@@H](C(=O)Nc4nc(Br)ccc4C)N(C(=O)C2)[C@@H]1C3` [Compound T-79], the IC50 was < 1 µM.
For `CC(=O)c1nn2c3cc(c(-c4cnc(C)nc4)cc13)OCCC/C=C\COC[C@@]13C[C@@H](C(=O)Nc4nc(Br)ccc4C)N(C(=O)C2)[C@@H]1C3` [Compound T-80] the value was < 1 µM; for `CC(=O)c1nn2c3c(cc(-c4cnc(C)nc4)cc13)CC=CCCCC(=O)NC[C@@]13C[C@@H](C(=O)NCc4cccc(Cl)c4F)N(C(=O)C2)[C@@H]1C3` [Compound T-82], < 1 µM.
For `CC(=O)c1nn2c3c(cc(-c4cnc(C)nc4)cc13)CC=CCCCC(=O)NC[C@@]13C[C@@H](C(=O)Nc4nc(Br)c(F)cc4C)N(C(=O)C2)[C@@H]1C3` [Compound T-84] the value was < 1 µM.
